For one molecule, Ki results are on record in BindingDB's records for doi:10.1101/2020.09.12.293498 (Pfizer, 2020).

The target in assay [1] is Replicase polyprotein 1ab (Human coronavirus HKU1 (isolate N5), UniProt P0C6X4). The experiment in a line: FRET protease activity assay. As to the method:
(§1) PF-00835231 was evaluated against 3CLpro from a variety of other coronaviruses representing alpha, beta and gamma groups of Coronaviridae, using biochemical F rster Resonance Energy Transfer (FRET) protease activity assays.

In assay [2] the target is Replicase polyprotein 1ab (Avian infectious bronchitis virus (strain Beaudette CK), UniProt P0C6Y2). The experiment in a line: FRET protease activity assay. As to the method:
as §1

Chain of Replicase polyprotein 1ab (Avian infectious bronchitis virus (strain Beaudette CK), UniProt P0C6Y2) (P0C6Y2 2780-3086 limits assumed): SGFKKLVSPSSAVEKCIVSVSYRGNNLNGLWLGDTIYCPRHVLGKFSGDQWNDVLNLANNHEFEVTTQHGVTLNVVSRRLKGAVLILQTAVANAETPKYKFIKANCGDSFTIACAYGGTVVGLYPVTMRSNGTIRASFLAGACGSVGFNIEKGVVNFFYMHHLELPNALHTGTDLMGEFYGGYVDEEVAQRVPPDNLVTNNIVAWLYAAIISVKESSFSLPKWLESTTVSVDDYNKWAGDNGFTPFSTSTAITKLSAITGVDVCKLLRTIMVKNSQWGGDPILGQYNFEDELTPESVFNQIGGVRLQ
Chain of Replicase polyprotein 1ab (Human coronavirus HKU1 (isolate N5), UniProt P0C6X4) (P0C6X4 3285-3587 limits assumed): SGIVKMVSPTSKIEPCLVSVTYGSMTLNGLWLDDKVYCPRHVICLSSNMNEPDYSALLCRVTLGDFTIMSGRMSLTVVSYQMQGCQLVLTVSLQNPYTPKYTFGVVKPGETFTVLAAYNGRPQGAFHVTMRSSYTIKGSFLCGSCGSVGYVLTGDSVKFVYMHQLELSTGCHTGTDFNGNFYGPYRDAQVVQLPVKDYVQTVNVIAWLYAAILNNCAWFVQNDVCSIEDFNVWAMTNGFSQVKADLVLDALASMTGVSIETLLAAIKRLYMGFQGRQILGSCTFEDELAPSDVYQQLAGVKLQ

In general, Ki refers to the equilibrium dissociation constant of an inhibitor or competing ligand from its target. Lower therefore signals tighter binding. Take `COc1cccc2[nH]c(C(=O)N[C@@H](CC(C)C)C(=O)N[C@@H](C[C@@H]3CCNC3=O)C(=O)CO)cc12` [WO2005113580-Ex-02]: the values for the Ki in assay [1] and in assay [2] were 0.85 nM and 4 nM, respectively.
